Converted amounts (≈) assume the structure as drawn.
Columns and labels:
Aspergillus niger = assay: MIC against fungi (agar, beer wort and peptone); format: cell-based; details: 336 h, 2 weeks at 28° C., 60 to 70% relative humidity, read-out: MIC values when substances according to the invention act on fungi
Procedure: (§1) Compounds according to the invention are added, in concentrations of 0.1 mg/l to 5,000 mg/l, to an agar prepared from beer wort and peptone.

Penicillium glaucum = assay: MIC against fungi (agar, beer wort and peptone); format: cell-based; details: 336 h, 2 weeks at 28° C., 60 to 70% relative humidity, read-out: MIC values when substances according to the invention act on fungi
Procedure: as §1

Chaetomium globosum = assay: MIC against fungi (agar, beer wort and peptone); format: cell-based; details: 336 h, 2 weeks at 28° C., 60 to 70% relative humidity, read-out: MIC values when substances according to the invention act on fungi
Procedure: as §1

Polyporus versicolor [1] = assay: Limiting toxic values (toxicity limits) on beechwood; details: 6 weeks at 21° to 23° C.; concentrations at which timber still attacked - no longer attacked
Procedure: (§2) Determination of the limiting toxic values (kg/m^3 of timber) of active compounds according to the invention for Coniophora puteana and Polyporus versicolor on pinewood and beechwood, respectively.
(§3) The limiting toxic values are determined by a method modelled on the method described by H. P. Sutter, Int. Biodeterioration Bulletin, 14 (3), 1978, pages 95 to 99.
(§4) For each test, freshly cut, thin pieces of cross-cut timber (dimensions 40×40 mm, thickness about 2 mm) are impregnated in vacuo with solutions of varying concentrations of active compounds. In each case one concentration of active compound is used to impregnate 15 timber samples simultaneously. 5 of these are in each case used at the same time for a mycological test.
(§5) The amount of active compound absorbed is determined from the retention of solvent (determined by weighing the small piece of timber before and after impregnation), the density of the timber and the concentration of the active compound in the residual impregnating solution.
(§6) Before the mycological test, the test specimens are sterilized with propylene oxide and in each case 1 test specimen is brought into contact in a Petri dish with the fully developed mycellium of the test fungus on malt extract agar. The toxicity limits are determined visually after 6 weeks at 21° to 23° C.
(§7) The toxicity limits ([…] of timber) for substances according to the invention are shown in the table below; the toxicity limits indicate the concentrations at which the timber is still attacked and at which the timber is no longer attacked.

slime organisms = assay: Action against slime organisms, MIC in Allen's nutrient solution; format: cell-based; details: 504 h, approx. 10^6 microbes/ml, 3 weeks at room temperature, read-out: MIC in mg/l when the substances act on slime organisms
Procedure: Substances according to the invention, dissolved in a little acetone, are used in concentrations of 0.1 to 100 mg/l in a particular case in Allen's nutrient solution (Arch. Mikrobiol., 17, 34 to 53 (1952)), containing, in 4 l of sterile water, 0.2 g of ammonium chloride, 4.0 g of sodium nitrate, 1.0 g of dipotassium hydrogen phosphate, 0.2 g of calcium chloride, 2.05 g of magnesium sulphate, 0.02 g of iron chloride and 1% of caprolactam. Shortly beforehand, the nutrient solution is infested with slime organisms (approx. 10^6 microbes/ml) which have been isolated from circulating spinning water used in the production of polyamide.

Coniophora puteana [2] = assay: Limiting toxic values (toxicity limits) on pinewood; details: 6 weeks at 21° to 23° C.; concentrations at which timber still attacked - no longer attacked
Procedure: as §2, §3, §4, §5, §6, §7

Alternaria tenuis = assay: MIC against fungi (agar, beer wort and peptone); format: cell-based; details: Alternaria alternata, 336 h, 2 weeks at 28° C., 60 to 70% relative humidity, read-out: MIC values when substances according to the invention act on fungi
Procedure: as §1

Aureobasidium pullulans = assay: MIC against fungi (agar, beer wort and peptone); format: cell-based; details: 336 h, 2 weeks at 28° C., 60 to 70% relative humidity, read-out: MIC values when substances according to the invention act on fungi
Procedure: as §1

Coniophora puteana [3] = assay: MIC against fungi (agar, beer wort and peptone); format: cell-based; details: 336 h, 2 weeks at 28° C., 60 to 70% relative humidity, read-out: MIC values when substances according to the invention act on fungi
Procedure: as §1

Lentinus tigrinus = assay: MIC against fungi (agar, beer wort and peptone); format: cell-based; details: 336 h, 2 weeks at 28° C., 60 to 70% relative humidity, read-out: MIC values when substances according to the invention act on fungi
Procedure: as §1

Polyporus versicolor [4] = assay: MIC against fungi (agar, beer wort and peptone); format: cell-based; details: Trametes versicolor, 336 h, 2 weeks at 28° C., 60 to 70% relative humidity, read-out: MIC values when substances according to the invention act on fungi
Procedure: as §1

Sclerophoma pityophila = assay: MIC against fungi (agar, beer wort and peptone); format: cell-based; details: Sydowia polyspora, 336 h, 2 weeks at 28° C., 60 to 70% relative humidity, read-out: MIC values when substances according to the invention act on fungi
Procedure: as §1

Phytophthora infestans = format: in vivo; details: for fungicidal properties for plant protection: phytophthora test [tomatoes], sulphamides compared with N-sulphenylated benzenesulphonamides according to the invention; for % attack at an active compound concentration of 10 ppm: tomato plants, protective
[5] = cited from earlier work

| SMILES | MIC (Aspergillus niger) [µg/mL] | MIC (Penicillium glaucum) [µg/mL] | MIC (Chaetomium globosum) [µg/mL] | Toxicity Limits, Polyporus versicolor on beechwood (Polyporus versicolor [1]) | MIC (slime organisms) [mg/L] | Toxicity Limits, Coniophora puteana on pinewood (Coniophora puteana [2]) | MIC (Alternaria tenuis) [µg/mL] | MIC (Aureobasidium pullulans) [µg/mL] | MIC (Coniophora puteana [3]) [µg/mL] | MIC (Lentinus tigrinus) [µg/mL] | MIC (Polyporus versicolor [4]) [µg/mL] | MIC (Sclerophoma pityophila) [µg/mL] | fungicidal properties for plant protection (Phytophthora infestans) | solubility in the formulating agents customary for timber preservatives [5] | % attack at an active compound concentration of 10 ppm (Phytophthora infestans) [%] |
| --- | --- | --- | --- | --- | --- | --- | --- | --- | --- | --- | --- | --- | --- | --- | --- |
| CN(SC(F)(Cl)Cl)S(=O)(=O)c1ccc(Cl)c([N+](=O)[O-])c1 [Example 26] | 50 (≈ 130 µM) | 20 (≈ 52.1 µM) | 20 (≈ 52.1 µM) | – | – | – | – | – | – | – | – | – | – | – | – |
| CCN(SC(F)(Cl)Cl)S(=O)(=O)c1ccccc1 [Example 2] | 10 (≈ 31.4 µM) | 10 (≈ 31.4 µM) | < 2 | 1.4-2.4 kg/m^3 of timber | ≤ 2 | 0.24-0.74 kg/m^3 of timber | – | – | – | – | – | – | – | – | – |
| COCCCN(SC(F)(Cl)Cl)S(=O)(=O)c1ccc(C)cc1 [Example 22] | 20 (≈ 53.1 µM) | 35 (≈ 93 µM) | 5 (≈ 13.3 µM) | – | – | – | – | – | – | – | – | – | – | – | – |
| CCN(SC(F)(Cl)Cl)S(=O)(=O)c1ccc(Cl)cc1 [Example 6] | 10 (≈ 28.4 µM) | 10 (≈ 28.4 µM) | 35 (≈ 99.2 µM) | – | – | – | 20 (≈ 56.7 µM) | 10 (≈ 28.4 µM) | 0.75 (≈ 2.13 µM) | 0.5 (≈ 1.42 µM) | 1 (≈ 2.84 µM) | 7.5 (≈ 21.3 µM) | – | – | – |
| Cc1ccc(C)c(S(=O)(=O)N(C)SC(F)(Cl)Cl)c1 [Example 19] | 10 (≈ 30.1 µM) | 20 (≈ 60.2 µM) | < 2 | 1.07-1.76 kg/m^3 of timber | – | 0.24-0.72 kg/m^3 of timber | 100 (≈ 301 µM) | 35 (≈ 105 µM) | 7.5 (≈ 22.6 µM) | 100 (≈ 301 µM) | 100 (≈ 301 µM) | 10 (≈ 30.1 µM) | – | – | – |
| Cc1ccc(N(SC(F)(Cl)Cl)S(=O)(=O)N(C)C)cc1 [N,N-dimethyl-N'-(4-tolyl)-N'-dichlorofluoromethylthio-sulphamide] | – | – | – | – | – | – | – | – | – | – | – | – | considerably better fungicidal properties for plant protection | – | – |
| CN(SC(F)(Cl)Cl)S(=O)(=O)c1ccccc1 [Example 24] | 5 (≈ 16.4 µM) | 5 (≈ 16.4 µM) | 3.5 (≈ 11.5 µM) | – | – | – | – | – | – | – | – | – | – | – | – |
| O=C1c2ccccc2C(=O)N1SC(F)(Cl)Cl [A, N-fluorodichloromethylthiophthalimide, reference compound] | 200 (≈ 714 µM) | 35 (≈ 125 µM) | 100 (≈ 357 µM) | – | – | – | 10 (≈ 35.7 µM) | 50 (≈ 179 µM) | 2 (≈ 7.14 µM) | 2 (≈ 7.14 µM) | 50 (≈ 179 µM) | 10 (≈ 35.7 µM) | – | – | – |
| CCN(SC(F)(Cl)Cl)S(=O)(=O)c1ccc(C)cc1 [Example 4] | 10 (≈ 30.1 µM) | 20 (≈ 60.2 µM) | 7.5 (≈ 22.6 µM) | 2.8-3.7 kg/m^3 of timber | – | 0.65-1.3 kg/m^3 of timber | 10 (≈ 30.1 µM) | 3.5 (≈ 10.5 µM) | 0.3 (≈ 0.903 µM) | 0.5 (≈ 1.5 µM) | 0.5 (≈ 1.5 µM) | 3.5 (≈ 10.5 µM) | – | – | – |
| Cc1ccc(S(=O)(=O)N(C)SC(F)(Cl)Cl)cc1[N+](=O)[O-] [Example 8] | 20 (≈ 55.1 µM) | 20 (≈ 55.1 µM) | 15 (≈ 41.3 µM) | – | – | – | 5 (≈ 13.8 µM) | 5 (≈ 13.8 µM) | 0.75 (≈ 2.06 µM) | 5 (≈ 13.8 µM) | 7.5 (≈ 20.6 µM) | 5 (≈ 13.8 µM) | – | – | – |
| CN(C)S(=O)(=O)N(SC(F)(Cl)Cl)c1ccccc1 [B, N,N-dimethyl-N'-phenyl-N'-(fluorodichloromethylthio)-sulphamide, reference compound] | 50 (≈ 150 µM) | 50 (≈ 150 µM) | 50 (≈ 150 µM) | 2.23-2.81 kg/m^3 of timber | – | 1.61-2.25 kg/m^3 of timber | 10 (≈ 30 µM) | 7.5 (≈ 22.5 µM) | 7.5 (≈ 22.5 µM) | 10 (≈ 30 µM) | 20 (≈ 60 µM) | 15 (≈ 45 µM) | considerably better fungicidal properties for plant protection | very sparingly soluble | – |
| CN(SC(F)(Cl)Cl)S(=O)(=O)c1ccc(Cl)c(Cl)c1 [Example 25] | 20 (≈ 53.6 µM) | 10 (≈ 26.8 µM) | 7.5 (≈ 20.1 µM) | – | – | – | – | – | – | – | – | – | – | – | – |
| Cc1ccc(S(=O)(=O)N(C)SC(F)(Cl)Cl)cc1C [Example 17] | 10 (≈ 30.1 µM) | 10 (≈ 30.1 µM) | 3.5 (≈ 10.5 µM) | – | – | – | – | – | – | – | – | – | – | – | – |
| CN(C)S(=O)(=O)N(SC(F)(Cl)Cl)c1ccccc1 [drawing 12] | – | – | – | – | – | – | – | – | – | – | – | – | – | – | 19 |
| Cc1ccc(S(=O)(=O)N(C)SC(F)(Cl)Cl)cc1 [Example 1, N-fluorodichloromethylthio-N-methylamide of 4-toluenesulphonic acid] | 10 (≈ 31.4 µM) | 10 (≈ 31.4 µM) | 3.5 (≈ 11 µM) | 2.2-2.9 kg/m^3 of timber | ≤ 2 | 0.22-0.65 kg/m^3 of timber | 20 (≈ 62.8 µM) | 5 (≈ 15.7 µM) | 0.5 (≈ 1.57 µM) | 5 (≈ 15.7 µM) | 2 (≈ 6.28 µM) | 5 (≈ 15.7 µM) | – | – | – |
| CCCCN(SC(F)(Cl)Cl)S(=O)(=O)c1ccccc1 [Example 3] | – | – | – | 0.63-1.29 kg/m^3 of timber | – | 0.25-0.76 kg/m^3 of timber | – | – | – | – | – | – | – | – | – |
| CN(SC(F)(Cl)Cl)S(=O)(=O)c1cc(Cl)ccc1Cl [Example 28] | 20 (≈ 53.6 µM) | 15 (≈ 40.2 µM) | 35 (≈ 93.8 µM) | – | – | – | – | – | – | – | – | – | – | – | – |
| Cc1ccc(N(SC(F)(Cl)Cl)S(=O)(=O)N(C)C)cc1 [drawing 13] | – | – | – | – | – | – | – | – | – | – | – | – | – | – | 14 |
| CN(SC(F)(Cl)Cl)S(=O)(=O)c1ccc([N+](=O)[O-])cc1 [Example 14] | 20 (≈ 57.3 µM) | 20 (≈ 57.3 µM) | 20 (≈ 57.3 µM) | 2.2-3.07 kg/m^3 of timber | – | 0.26-0.79 kg/m^3 of timber | 35 (≈ 100 µM) | 5 (≈ 14.3 µM) | 3.5 (≈ 10 µM) | 5 (≈ 14.3 µM) | 10 (≈ 28.6 µM) | 3.5 (≈ 10 µM) | – | – | – |
| CN(SC(F)(Cl)Cl)S(=O)(=O)c1cccc([N+](=O)[O-])c1 [Example 27] | 20 (≈ 57.3 µM) | 20 (≈ 57.3 µM) | 20 (≈ 57.3 µM) | – | – | – | – | – | – | – | – | – | – | – | – |
